For 21 molecules, inhibition results are on record in patent US20220289679A1, “HETEROCYCLIC COMPOUND” (Takeda Pharmaceutical Company Limited, priority 2019, published 2022).

Molecules are shown by their SMILES.

This experiment addresses T1, human GCS (glucosylceramide synthase) (Homo sapiens, UniProt Q16739).
T1 construct: made in house; host or cells: Expi293F cells (transient expression; microsome fraction)
T1 sequence (Q16739 1-394): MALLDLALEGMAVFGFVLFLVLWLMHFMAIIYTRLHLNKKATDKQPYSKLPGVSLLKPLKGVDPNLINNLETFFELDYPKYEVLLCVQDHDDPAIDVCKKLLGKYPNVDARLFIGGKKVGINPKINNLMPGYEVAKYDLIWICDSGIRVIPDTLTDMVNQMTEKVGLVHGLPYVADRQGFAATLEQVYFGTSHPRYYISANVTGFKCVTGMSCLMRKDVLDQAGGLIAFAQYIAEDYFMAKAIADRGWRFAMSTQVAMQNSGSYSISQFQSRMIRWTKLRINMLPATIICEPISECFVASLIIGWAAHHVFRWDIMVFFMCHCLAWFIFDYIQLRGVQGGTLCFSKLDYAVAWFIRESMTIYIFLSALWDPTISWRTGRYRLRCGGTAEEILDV
Kind of experiment: Glucosylceramide Synthase (GCS) Assay. Type of experiment: biochemical. Conditions: test compound 10 μM; microsome fraction of Expi293F cells expressing human GCS; 1.7 μM UDP-glucose, 3 μM C8 ceramide; room temperature 60 min; C8 glucosylceramide by Rapidfire MS/MS; read-out: GCS enzyme inhibitory rate at 10 μM (%). The essentials: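 Enzyme source was a microsome fraction from Expi293F cells transiently expressing human GCS. Reaction ran 60 min at room temperature in 20 mM Tris pH 7.5 with 1.7 μM UDP-glucose (Km) and 3 μM liposomal C8 ceramide, compound at 10 μM final. C8 glucosylceramide quantified by RapidFire MS/MS; inhibition scaled between enzyme-free and DMSO controls.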
Consider `O=C(Nc1ccc(C(O)(C(F)F)C(F)F)nc1)c1cccn(-c2cccnc2OCC(F)(F)F)c1=O` [Example 123, 2-oxo-N-[6-(1,1,3,3-tetrafluoro-2-hydroxypropan-2-yl)pyridin-3-yl]-2′-(2,2,2-trifluoroethoxy)-2H-[1,3′-bipyridine]-3-carboxamide], for which the inhibition at 10 µM came to 99%.
`O=C(Nc1cnc(C(F)(F)F)cn1)c1cccn(-c2ccc(F)cc2OCC(F)(F)F)c1=O` [Example 37, 1-[4-fluoro-2-(2,2,2-trifluoroethoxy)phenyl]-2-oxo-N-[5-(trifluoromethyl)pyrazin-2-yl]-1,2-dihydropyridine-3-carboxamide]: the inhibition at 10 µM amounted to 83%.
For the molecule `CCOC(=O)c1ccc(NC(=O)c2cc(C)nn(-c3ccccc3OCC(F)F)c2=O)s1` [Example 170, ethyl 5-({2-[2-(2,2-difluoroethoxy)phenyl]-6-methyl-3-oxo-2,3-dihydropyridazine-4-carbonyl}amino)thiophene-2-carboxylate], the inhibition at 10 µM was 65%.
Regarding `Cc1cc(C(=O)Nc2ccc(C(C)O)cc2)c(=O)n(-c2ccccc2OCC(F)F)n1` (racemic) [Example 139, rac-2-[2-(2,2-difluoroethoxy)phenyl]-N-[4-(1-hydroxyethyl)phenyl]-6-methyl-3-oxo-2,3-dihydropyridazine-4-carboxamide], the inhibition at 10 µM was 99%.
Consider `O=C(Nc1ccc(C(O)(C(F)F)C(F)F)cc1F)c1ccnn(-c2ccccc2OCC(F)F)c1=O` [Example 157, 2-[2-(2,2-difluoroethoxy)phenyl]-N-[2-fluoro-4-(1,1,3,3-tetrafluoro-2-hydroxypropan-2-yl)phenyl]-3-oxo-2,3-dihydropyridazine-4-carboxamide], for which the inhibition at 10 µM is 100%.
Consider `O=C(Nc1ccc(OCC(F)(F)F)nc1)c1cccn(-c2ccc(F)cc2OCC(F)(F)C(F)(F)F)c1=O` [Example 56, 1-[4-fluoro-2-(2,2,3,3,3-pentafluoropropoxy)phenyl]-2-oxo-N-[6-(2,2,2-trifluoroethoxy)pyridin-3-yl]-1,2-dihydropyridine-3-carboxamide], for which the inhibition at 10 µM worked out at 100%.
Regarding `CC(C)(O)c1ccc(NC(=O)c2ccnn(-c3ccc(F)cc3OCC(F)(F)F)c2=O)cn1` [Example 112, 2-[4-fluoro-2-(2,2,2-trifluoroethoxy)phenyl]-N-[6-(2-hydroxypropan-2-yl)pyridin-3-yl]-3-oxo-2,3-dihydropyridazine-4-carboxamide], the inhibition at 10 µM stood at 94%.
As to `CC(C)(O)c1ccc(NC(=O)c2cccn(-c3cc(F)ccc3OCC(F)(F)F)c2=O)cc1` [Example 113, 1-[5-fluoro-2-(2,2,2-trifluoroethoxy)phenyl]-N-[4-(2-hydroxypropan-2-yl)phenyl]-2-oxo-1,2-dihydropyridine-3-carboxamide], the inhibition at 10 µM stood at 98%.
As for `CC(C)(O)c1ccc(NC(=O)c2cn(C3CCOC3)nc(-c3ccccc3OCC(F)F)c2=O)cc1` (racemic) [Example 193, rac-6-[2-(2,2-difluoroethoxy)phenyl]-N-[4-(2-hydroxypropan-2-yl)phenyl]-5-oxo-2-(oxolan-3-yl)-2,5-dihydropyridazine-4-carboxamide], the inhibition at 10 µM was determined as 99%.
To `Cc1cc(C(=O)Nc2ccc(C(C)(C)O)cc2C#N)c(=O)n(-c2ccccc2OCC(F)F)n1` [Example 154, N-[2-cyano-4-(2-hydroxypropan-2-yl)phenyl]-2-[2-(2,2-difluoroethoxy)phenyl]-6-methyl-3-oxo-2,3-dihydropyridazine-4-carboxamide] belongs 83%.
Regarding `CC(C)(C#N)c1ccc(NC(=O)c2cccn(-c3ccc(F)cc3OCC(F)(F)F)c2=O)cn1` [Example 87, N-[6-(2-cyanopropan-2-yl)pyridin-3-yl]-1-[4-fluoro-2-(2,2,2-trifluoroethoxy)phenyl]-2-oxo-1,2-dihydropyridine-3-carboxamide], the inhibition at 10 µM was 99%.
With `CC(C)(O)Cn1cc(C(=O)Nc2ccc(OC(F)F)cc2)c(=O)c(-c2ccccc2OCC(F)F)n1` [Example 173, 6-[2-(2,2-difluoroethoxy)phenyl]-N-[4-(difluoromethoxy)phenyl]-2-(2-hydroxy-2-methylpropyl)-5-oxo-2,5-dihydropyridazine-4-carboxamide], the inhibition at 10 µM was found to be 95%.
For `O=C(Nc1ccc(C(O)(C(F)F)C(F)F)cc1)c1ccnn(-c2ccccc2OCC(F)(F)F)c1=O` [Example 155, 3-oxo-N-[4-(1,1,3,3-tetrafluoro-2-hydroxypropan-2-yl)phenyl]-2-[2-(2,2,2-trifluoroethoxy)phenyl]-2,3-dihydropyridazine-4-carboxamide], the inhibition at 10 µM is 100%.
In the case of `Cc1cc(C(=O)Nc2ccc(C(C)(C)O)cc2)c(=O)n(-c2ccc(F)cc2OCC(F)(F)F)c1` [Example 107, 1-[4-fluoro-2-(2,2,2-trifluoroethoxy)phenyl]-N-[4-(2-hydroxypropan-2-yl)phenyl]-5-methyl-2-oxo-1,2-dihydropyridine-3-carboxamide], the inhibition at 10 µM turned out to be 100%.
The figure for `O=C(Nc1ccc(OCC2CC2)cc1)c1cccn(-c2ccc(F)cc2OCC(F)(F)F)c1=O` [Example 50, N-[4-(cyclopropylmethoxy)phenyl]-1-[4-fluoro-2-(2,2,2-trifluoroethoxy)phenyl]-2-oxo-1,2-dihydropyridine-3-carboxamide] is 100%; for `COC(C)(C)c1ccc(NC(=O)c2cccn(-c3ccc(F)cc3OCC(F)(F)F)c2=O)cn1` [Example 91, 1-[4-fluoro-2-(2,2,2-trifluoroethoxy)phenyl]-N-[6-(2-methoxypropan-2-yl)pyridin-3-yl]-2-oxo-1,2-dihydropyridine-3-carboxamide] it is 89%; for `Cn1cc(C(=O)Nc2ccc(OCC(C)(C)O)cc2)c(=O)c(-c2ccccc2OCC(F)F)n1` [Example 164, 6-[2-(2,2-difluoroethoxy)phenyl]-N-[4-(2-hydroxy-2-methylpropoxy)phenyl]-2-methyl-5-oxo-2,5-dihydropyridazine-4-carboxamide] it is 94%.
`CC(C)(O)c1ccc(NC(=O)c2cn(C(F)F)nc(-c3ccccc3OCC(F)F)c2=O)cc1` [Example 161, 6-[2-(2,2-difluoroethoxy)phenyl]-2-(difluoromethyl)-N-[4-(2-hydroxypropan-2-yl)phenyl]-5-oxo-2,5-dihydropyridazine-4-carboxamide]: the inhibition at 10 µM amounted to 100%.
Consider `CC(C)(O)c1ccc(NC(=O)c2cccn(-c3ccccc3OCC(F)(F)F)c2=O)cn1` [Example 84, N-[6-(2-hydroxypropan-2-yl)pyridin-3-yl]-2-oxo-1-[2-(2,2,2-trifluoroethoxy)phenyl]-1,2-dihydropyridine-3-carboxamide], for which the inhibition at 10 µM is 98%.
Consider `CC(=O)c1cc(C(=O)Nc2ccc(OC(F)F)cc2)c(=O)n(-c2ccccc2OCC(F)(F)F)n1` [Example 197, 6-acetyl-N-[4-(difluoromethoxy)phenyl]-3-oxo-2-[2-(2,2,2-trifluoroethoxy)phenyl]-2,3-dihydropyridazine-4-carboxamide], for which the inhibition at 10 µM amounted to 99%.
To `CC(C)Cn1cc(NC(=O)c2cccn(-c3ccc(F)cc3OCC(F)(F)F)c2=O)cn1` [Example 33, 1-[4-fluoro-2-(2,2,2-trifluoroethoxy)phenyl]-N-[1-(2-methylpropyl)-1H-pyrazol-4-yl]-2-oxo-1,2-dihydropyridine-3-carboxamide] belongs 76%.
